These results are taken from patent US5218089A, “Retro-inverso analogues of thymopentin and the method for their synthesis” (Sclavo S.p.A., priority 1988, dated 1993).

Some results are limits rather than exact numbers.

Data set [1] concerns lymphocytes which secrete antibodies (PFC). Put plainly: Hemolysis plaque (PFC) test of Jerne and Nordin in SRBC-immunized mice. The format is in vivo, C3H/HeNCr1Br inbred male mice. The settings on record: 1 ng of peptide orally 2 hours after SRBC i.v., spleen lymphocytes after 4 days, IgM PFC. As to the method: Specifically, hemolysis plates (PFC) were used for the test, which was conducted by the method described by Jerne and Nordin. The test was carried out by intravenously administering to C3H/HeNCr1Br inbred male mice (Calco-Italia) of 10-12 weeks and about 25 g body weight an apyrogenic saline solution (0.2 ml) containing 1-2×10^8 red blood cells from sheep (SRBC). After two hours, groups each containing 3 mice were treated orally (intragastric tube) with 0.2 ml of saline solution (control) or with 0.2 ml of saline solution containing 1 ng of peptide. After 4 days the mice were killed and the spleen withdrawn and dissociated mechanically to separate the lymphocytes. The thus isolated lymphocytes were washed with minimum essential medium (MEM) (3×15 ml) containing Earle's salts and then resuspended in the same medium (1 ml) at a final concentration of 150,000 cells. Each cell suspension (0.1 ml) was then diluted 1:100 with MEM, 100 μl of each dilution being doubly added to microplate wells containing 25 μl of MEM, 25 μl of a 10% solution of SRBC antigens and 25 μl of guinea pig complement at a final dilution of 1:64. The entire suspension was immediately transferred by capillarity from each well to superimposed slides. […]
At the end of this period the direct hemolysis plaques indicating the number of lymphocytes which secrete antibodies (PFC) are counted by a light contrast viewer.

Data set [2] in a line: in vitro. The settings on record: human, heparinized human plasma.
Experimental: (§1) The incubations were done at 37° C., and the withdrawn samples of the plasmatic mixture, of 100 μl each, were blocked at the various times by adding trifluoroacetic acid to the extent of 10%, followed by centrifuging at 10,000g for 5 minutes. An aliquot of the supernatant was chromatographed under conditions suitable for showing the change in the peptide concentration at the various times.
Data set [3] is described as follows: Stability towards enzymatic hydrolysis in heparinized human plasma. The settings on record: 37° C., about 30 nmoles/ml of plasma.
Experimental: as §1
For data set [4] the following is noted: action of various proteases; cited from earlier work.

What is called half-life is the time needed for the level to fall by half in the phase considered. Read a high half-life as slow decline. As for `CC(C)[C@H](NC(=O)[C@H](CC(=O)O)NC(=O)C(CCCCN)C(=O)N[C@@H](N)CCCNC(=N)N)C(=O)N[C@@H](Cc1ccc(O)cc1)C(=O)O` (some centres unmarked), in data set [1], the “Plaque formation % control” value is 112 % control. The half-life in data set [2] is 22 min. Besides, in data set [3], the “Stability towards enzymatic hydrolysis in human plasma (t/2 in minutes)” value (“Stability towards enzymatic hydrolysis” below) was determined as 22 min.

As for `CC(C)C(C(=O)N[C@H](CC(=O)O)NC(=O)C(CCCCN)C(=O)N[C@@H](N)CCCNC(=N)N)C(=O)N[C@@H](Cc1ccc(O)cc1)C(=O)O` (some centres unmarked) [Example 1], in data set [2], the half-life was more than 300 min. Further, in data set [3], the “Stability towards enzymatic hydrolysis” value is more than 300 min.

With “H-RKDVY-OH [TP5, H-Arg-Lys-Asp-Val-Tyr-OH]”, the “Plaque formation % control” value in data set [1] is 104 % control. Further, in data set [4], the “t1/2 in the plasma” value is listed as 1.5 min. Also, the “Stability towards enzymatic hydrolysis” value in data set [3] is “≈ 1.5 minutes”.
